Assays:
EKVX = experiment: NCI-60 five-dose assay; format: cell-based, human
Experimental: (§1) A number of our most promising compounds identified through preliminary cell viability testing (23c, 23d, 23f, 23h, 23l, 23m, 23n, 23o, 24f, 24l, 25n and 26n) were selected for NCI drug screening in the 60-cell-line panel. The panel includes nine subcategories based on cancer tissue types, which include leukemia, ovarian, central nervous system, breast, lung, prostate, skin, renal and colon cancer. The compounds were initially assessed in a one-dose assay at a fixed treatment concentration of 10 µM. The compounds selected for further investigation were progressed to a five-dose assay across the concentration ranges of 0.01, 0.1, 1, 10 and 100 µM [72]. The endpoints assessed in the screening protocol were GI50, TGI and LC50 [72].

NCI-H460 = experiment: NCI-60 five-dose assay; format: cell-based, human
Experimental: as §1

NCI-H23 = experiment: NCI-60 five-dose assay; format: cell-based, human
Experimental: as §1

KM12 = experiment: NCI-60 five-dose assay; format: cell-based, human
Experimental: as §1

MCF-7 = experiment: NCI-60 five-dose assay; format: cell-based, human
Experimental: as §1

PC-3 = experiment: NCI-60 five-dose assay; format: cell-based, human
Experimental: as §1

SN12C = experiment: NCI-60 five-dose assay; format: cell-based, human
Experimental: as §1

SF-268 = experiment: NCI-60 five-dose assay; format: cell-based, human
Experimental: as §1

LOX IMV1 = experiment: NCI-60 five-dose assay; format: cell-based, human
Experimental: as §1

CAKI-1 = experiment: NCI-60 five-dose assay; format: cell-based, human
Experimental: as §1

SW-620 = experiment: NCI-60 five-dose assay; format: cell-based, human
Experimental: as §1

OVCAR-8 = experiment: NCI-60 five-dose assay; format: cell-based, human
Experimental: as §1

786-0 = experiment: NCI-60 five-dose assay; format: cell-based, human
Experimental: as §1

HT29 = experiment: NCI-60 five-dose assay; format: cell-based, human; conditions: HT29
Experimental: as §1

NCI-H226 = experiment: NCI-60 five-dose assay; format: cell-based, human
Experimental: as §1

OVCAR-4 = experiment: NCI-60 five-dose assay; format: cell-based, human
Experimental: as §1

NCI-H332M = experiment: NCI-60 five-dose assay; format: cell-based, human
Experimental: as §1

SNB-19 = experiment: NCI-60 five-dose assay; format: cell-based, human
Experimental: as §1

IGROV1 = experiment: NCI-60 five-dose assay; format: cell-based, human
Experimental: as §1

TK-10 = experiment: NCI-60 five-dose assay; format: cell-based, human
Experimental: as §1

HCT-15 = experiment: NCI-60 five-dose assay; format: cell-based, human
Experimental: as §1

DU-145 = experiment: NCI-60 five-dose assay; format: cell-based, human
Experimental: as §1

HS 578T = experiment: NCI-60 five-dose assay; format: cell-based, human
Experimental: as §1

SK-OV-3 = experiment: NCI-60 five-dose assay; format: cell-based, human
Experimental: as §1

OVCAR-5 = experiment: NCI-60 five-dose assay; format: cell-based, human
Experimental: as §1

A549/ATCC = experiment: NCI-60 five-dose assay; format: cell-based, human
Experimental: as §1

SK-MEL-2 = experiment: NCI-60 five-dose assay; format: cell-based, human
Experimental: as §1

ACHN = experiment: NCI-60 five-dose assay; format: cell-based, human
Experimental: as §1

HCT-116 = experiment: NCI-60 five-dose assay; format: cell-based, human
Experimental: as §1

U251 = experiment: NCI-60 five-dose assay; format: cell-based, human
Experimental: as §1

M14 = experiment: NCI-60 five-dose assay; format: cell-based, human
Experimental: as §1

COLO205 = experiment: NCI-60 five-dose assay; format: cell-based, human
Experimental: as §1

MDA-MB-231/ATCC = experiment: NCI-60 five-dose assay; format: cell-based, human
Experimental: as §1

MDA-MB-468 = experiment: NCI-60 five-dose assay; format: cell-based, human
Experimental: as §1

UO-31 = experiment: NCI-60 five-dose assay; format: cell-based, human
Experimental: as §1

OVCAR-3 = experiment: NCI-60 five-dose assay; format: cell-based, human
Experimental: as §1

SF539 = experiment: NCI-60 five-dose assay; format: cell-based, human
Experimental: as §1

BT-549 = experiment: NCI-60 five-dose assay; format: cell-based, human
Experimental: as §1

UACC-257 = experiment: NCI-60 five-dose assay; format: cell-based, human
Experimental: as §1

MDA-MB-435 = experiment: NCI-60 five-dose assay; format: cell-based, human
Experimental: as §1

MALME-3M = experiment: NCI-60 five-dose assay; format: cell-based, human; conditions: MALME-3M
Experimental: as §1

MOLT-4 = experiment: NCI-60 five-dose assay; format: cell-based, human; conditions: MOLT-4
[1] = test system: HG-3 and PGA-1 cell lines; experiment: alamarBlue cell viability assay, mean of both CLL cell lines; format: cell-based, human; conditions: mean of HG-3 and PGA-1
HG-3 cells = experiment: alamarBlue cell viability assay; conditions: read-out: HG-3 IC50; HG-3, 24 h
[2] = test system: NCI 60 cancer cell line panel; experiment: NCI-60 five-dose assay, full-panel means; format: cell-based
Experimental: as §1

breast cancer cell lines = experiment: NCI-60 five-dose assay, breast cancer cell lines; format: cell-based, human; conditions: range over breast cancer cell lines
Experimental: as §1

RPMI-8226 = experiment: NCI-60 five-dose assay; format: cell-based, human; conditions: RPMI-8226
melanoma cell lines = experiment: NCI-60 five-dose assay, melanoma cell lines; format: cell-based, human; conditions: range over melanoma cell lines
Experimental: as §1

O=C(/C=C/C12c3ccccc3C(c3ccccc31)C1C(=O)NC(=O)C12)c1ccc(Cl)cc1 (racemic) [Compound 23l, (E)-9-(3-(4-Chlorophenyl)-3-oxoprop-1-en-1-yl)-9,10-dihydro-9,10-[3,4]epipyrroloanthracene-12,14-dione]
GI50 (EKVX): 1430 nM | GI50 (NCI-H460): 1800 nM | GI50 (NCI-H23): 1780 nM | GI50 (KM12): 2140 nM | GI50 (MCF-7): 1340 nM | GI50 (PC-3): 1390 nM | GI50 (SN12C): 1560 nM | GI50 (SF-268): 1990 nM | GI50 (LOX IMV1): 1600 nM | GI50 (CAKI-1): 1240 nM | GI50 (SW-620): 1890 nM | GI50 (OVCAR-8): 1130 nM | GI50 (786-0): 1730 nM | GI50 (HT29): 2270 nM | GI50 (NCI-H226): 1920 nM | GI50 (OVCAR-4): 1420 nM | GI50 (NCI-H332M): 1420 nM | GI50 (SNB-19): 1580 nM | GI50 (IGROV1): 1670 nM | GI50 (TK-10): 1920 nM | GI50 (HCT-15): 1470 nM | GI50 (DU-145): 1670 nM | GI50 (HS 578T): 1940 nM | GI50 (SK-OV-3): 1850 nM | GI50 (OVCAR-5): 1580 nM | GI50 (A549/ATCC): 2400 nM | GI50 (SK-MEL-2): 1810 nM | GI50 (ACHN): 1650 nM | GI50 (HCT-116): 1230 nM | GI50 (U251): 1520 nM | GI50 (M14): 1650 nM | GI50 (COLO205): 1910 nM | GI50 (MDA-MB-231/ATCC): 1880 nM | GI50 (MDA-MB-468): 1700 nM | GI50 (UO-31): 1280 nM | GI50 (OVCAR-3): 1630 nM | GI50 (SF539): 1510 nM | GI50 (BT-549): 1340 nM | GI50 (UACC-257): 1560 nM | GI50 (MDA-MB-435): 1680 nM | GI50 (MALME-3M): 1510 nM | GI50 (MOLT-4): 1700 nM | IC50 [1]: 2720 nM | IC50 (HG-3 cells): 2230 nM | CC50 [2]: 13200 nM | Mean TGI (MID TGI, total growth inhibition) ([2]; mean over NCI 60 cell line panel): 4265 nM | GI50 ([2]; mean over NCI 60 cell line panel, read-out: Mean GI50 (MID GI50, full-panel mean-graph mid-point)): 1620 nM | GI50 (breast cancer cell lines): 1340 to 1940 nM | GI50 (RPMI-8226): 1660 nM | GI50 (melanoma cell lines): 1400 to 1810 nM
